The text below walks through data of patent publication US7273723B2, “Antibiotic-based gene regulation system” (priority 2001, dated 2007).

Assay [1] relates to erythromycin-dependent transactivators ET (MphR(A) fusions) / PETR promoters. Put plainly: SEAP reporter assay, CHO-K1 transiently cotransfected with ET transactivator and PETR-SEAP plasmids. Format: cell-based, Chinese hamster. The procedure:
(§1) Chinese hamster ovary cells (CHO-K1, ATCC: CCL 61), and HeLa cells (ATCC: CRL-7923) as well as stable cell lines derived thereof were cultured as described before (Fussenegger et al., 1998, Nat. Biotechnol. 16,468-472) in the presence of appropriate antibiotics: G418 400 μg/ml; zeocin 100 μg/ml. Optimized CaPO4 protocols were used for high efficiency transient transfection of all cell lines (Fussenegger et al., 1998. Nat. Biotechnol. 16: 468-472). Transiently transfected cells were routinely analyzed after 48 h for CFP or SEAP expression using fluorescence microscopy and p-nitrophenolphosphate-based light absorbance timecourse, respectively, as described before (Fussenegger et al., 1998, Nat. Biotechnol. 16, 468-472; Berger et al., 1988, Gene 66, 1-10 b). For construction of stable CHO-ET1 and CHO-Triplet42 cell lines, CHO-Ki and CHO-TWIN1108 (Disclosed in PCT application no. 00/65080) were cotransfected with pWW35 and pZeoSV2 (invitrogen). CHO-ET11-SEAP was constructed by cotransfection of pWW38 and pSV2neo (Clontech) into CHO-ET11. The mixed populations were cloned using FACS-mediated single-cell-sorting (FACStar^Plus; Beckton Dickinson). For assessment of dose-response characteristics of PETR3-regulated gene expression, CHO-ET11-SEAP were cultured at cell densities of 50,000/ml for 48 h at various EM concentrations.
(§2) Other antibiotics were eluted from antibiotic test discs (Mast Diagnostica GmbH, Reinfeld, Germany, or bioMérieux, Geneva Switzerland) in cell culture medium at 37° C. for 12 h to reach a final concentration of 30 μg/ml. All macrolide antibiotics were used at a 2 μg/ml concentration unless indicated otherwise.
In order to analyze the potential of the MphR(A)/ETR system for the design of a novel mammalian gene regulation system, we adapted these regulatory elements for use in a eukaryotic context by construction of a set of two chimeric determinants: the EM-inhibited transactivators (ET, MphR(A) fused to different eukaryotic transactivation domains: ET1: MphR(A)-VP16; ET2: MphR(A)-p65; ET3: MphR(A)-E2F4) and the EM-responsive promoter (PETR3) (ETR fused to the minimal cytomegalovirus PhCMVmin; Gossen et al., (1992). Proc. Natl. Acad. Sci. USA 89, 5547-5551). […] CFP-expression could only be detected when pWW44 was cotransfected with an ET1-encoding pWW35, showing that the chimeric ET1 protein functions as a transactivator for PETR3 in mammalian cells.
To analyze the regulatory performance of promoters PETR1 and PETR4, an ET1-encoding vector (pWW35) was cotransfected with pWW36 and pWW39 into CHO-K1 cells. […] The results are shown in Table 6 together with the values of an ET1/PETR3 transfection (Table 5) for better comparison.
For orientation: In a reporter assay the amount or activity of a reporter protein is the signal.

Assay [2] has as its system PIT / pristinamycin-responsive promoter PPIR. In words: SEAP assay in CHO-Triplet42 transfected with PPIR-SEAP (pMF172). The format is cell-based. Particulars: CHO-Triplet42 + pMF172 (PPIR); antibiotic 2 μg/ml; 48 h. As for the experimental part: as §1, §2
The regulation performance of the EM-based regulation system was compared directly with the widely used TET- and PIP responsive expression concepts. To this end, we have constructed a stable CHO-K1-derived cell line expressing ET1, PIT and tTA (CHO-Triplet42). […] CHO-Triplet42 was transfected with either isogenic (i) PETR3-(pWW38), (ii) a PPIR-(pristinamycin-responsive promoter, pMF172, Fussenegger et al., 2000. supra.), or (iii) a PhCMV*-1-(tetracycline-responsive promoter, pMF111, Fussenegger et al., 2000. supra) driven SEAP expression vector to assess the individual regulation performance of the three antibiotic-responsive gene regulation systems in CHO cells (Table 5).
To analyze the relative regulatory characteristics, we evaluated induction factors (IF; ratio of maximal expression level to antibiotic-repressed expression level).
These repressive effects are still in a range which is tolerable for use in potential medical applications.

`CC[C@H]1OC(=O)[C@H](C)[C@@H](O[C@H]2C[C@@](C)(OC)[C@@H](O)[C@H](C)O2)[C@H](C)[C@@H](O[C@@H]2O[C@H](C)C[C@H](N(C)C)[C@H]2O)[C@](C)(O)C[C@@H](C)C(=O)[C@H](C)[C@@H](O)[C@]1(C)O` [Erythromycin]: the “SEAP activity [U/L] + Erythromycin [10 μg/ml]” value in assay [1] (CHO + pBP37 + pWW38 (ET5 + PETR3), 48 hr) turned out to be 12.1 ± 1.5 U/L; in assay [1] (CHO + pBP38 + pWW38 (ET6 + PETR3), 48 hr), 5.8 ± 0.5 U/L; in assay [1] (CHO + pBP39 + pWW38 (ET7 + PETR3), 48 hr), 2.3 ± 0.2 U/L; in assay [1] (CHO + pWW35 + pWW36 (ET1 + PETR1-SEAP), 48 hrs), 5.3 ± 0.6 U/L; in assay [1] (CHO + pWW35 + pWW38 (ET1 + PETR3), 48 hr post transfection), 5.2 ± 0.5 U/L; in assay [1] (CHO + pWW35 + pWW39 (ET1 + PETR4-SEAP), 48 hrs), 29.3 ± 0.6 U/L. The “SEAP activity [U/L] + Erythromycin [10 μg/ml]” value in assay [1] (CHO + pWW42 + pWW38 (ET2 + PETR3), 48 hr) was 2.5 ± 0.6 U/L; in assay [1] (CHO + pWW64 + pWW38 (ET3 + PETR3), 48 hr), 1.0 ± 0.4 U/L. For the same molecule, the “SEAP activity [U/L]” value in assay [2] was determined as 10.1 ± 1.5 U/L.
